Measurements as given in patent US11998533B2, “Pharmaceutical compositions comprising LTV-17 and beta-lactamase inhibitors and their use as antibacterial agents” (FEDORA PHARMACEUTICALS INC., priority 2021, dated 2024).

Tests used:
Assay type in all cases: cell-based
Escherichia coli = assay: MIC broth microdilution, Escherichia coli isolates; details: LTV-17 alone
Description: (§1) Bacterial isolates: Representative resistant strains of Escherichia coli, Citrobacter freundii, Enterobacter cloacae, Klebsiella pneumoniae, and Proteus mirabilis harboring class-C β-lactamase producers were used to test for the synergistic effect of adding a β-lactamase inhibitor (II^j) to the antibiotic LTV-17 (I) (Table 1).
(§2) Minimum inhibitory concentration (MIC) test procedure: All antibiotics were tested by both the broth microdilution methods according to the Clinical and Laboratory Standards Institute (CLSI) recommendations (M07), and a modified CLSI method that included iron-depleted CA-MHB protocol. The MIC was defined as the lowest concentration of the antibiotic to produce clear wells in the 96-well plates. MIC interpretations were based on the CLSI M100-S23 (2013) and European Committee on Antimicrobial Susceptibility Testing (EUCAST; 2013) breakpoint criteria. Synergistic activity was calculated based on the number of two-fold dilution reduction of the MIC using LTV-17 (I) plus β-lactamase inhibitor Avibactam (II^j) compared to MIC of LTV-17 (I) tested alone against the same strains. The higher the number of two-fold reduction, the stronger the synergy is.
(§3) Avibactam was tested at a fixed concentration of 4 μg/mL.

Proteus mirabilis = assay: MIC broth microdilution, Proteus mirabilis isolate; details: isolate 1159308, CMY-DHA, LTV-17 alone
Description: as §1, §2, §3

Klebsiella pneumoniae = assay: MIC broth microdilution, Klebsiella pneumoniae isolate; details: isolate 1167846, CMY-DHA, LTV-17 alone
Description: as §1, §2, §3

[1] = system: Enterobacter cloacae species complex; assay: MIC broth microdilution, Enterobacter cloacae species complex isolates; details: LTV-17 alone
Description: as §1, §2, §3

[2] = system: Citrobacter freundii species complex; assay: MIC broth microdilution, Citrobacter freundii species complex isolate; details: isolate 1056585, Elevated AmpC, LTV-17 alone
Description: as §1, §2, §3

- MIC (Escherichia coli; isolate 827002, Elevated AmpC): 0.03 µg/mL
- MIC (Escherichia coli; isolate 841741, Elevated AmpC): 0.25 µg/mL
- MIC (Escherichia coli; isolate 850348, Elevated AmpC): 1 µg/mL
- MIC (Escherichia coli; isolate 850361, Elevated AmpC): 0.06 µg/mL
- MIC (Escherichia coli; isolate 1043714, Elevated AmpC): 0.06 µg/mL
- MIC (Escherichia coli; isolate 1047951, Elevated AmpC): 0.12 µg/mL
- MIC (Escherichia coli; isolate 1152443, CMY-DHA): 0.5 µg/mL
- MIC (Escherichia coli; isolate 1160345, CMY-DHA): 0.5 µg/mL
- MIC (Escherichia coli; isolate 1160670, CMY-DHA): 0.12 µg/mL
- MIC (Escherichia coli; isolate 1165173, CMY-DHA): 0.25 µg/mL
- MIC (Escherichia coli; isolate 1165490, CMY-DHA): 0.5 µg/mL
- MIC (Escherichia coli; isolate 1165546, CMY-DHA): 0.5 µg/mL
- MIC (Escherichia coli; isolate 1167103, CMY-DHA): 0.5 µg/mL
- MIC (Escherichia coli; isolate 1167174, CMY-DHA): 4 µg/mL
- MIC (Proteus mirabilis): 4 µg/mL
- MIC (Klebsiella pneumoniae): 1 µg/mL
- MIC ([1]; isolate 552115, Elevated AmpC): 2 µg/mL
- MIC ([1]; isolate 1057610, Elevated AmpC): 0.25 µg/mL
- MIC ([1]; isolate 1083996, Elevated AmpC): 0.5 µg/mL
- MIC [2]: 0.5 µg/mL
Structure (SMILES): CC(C)(O/N=C(\C(=O)N[C@H]1CON(C2(C(=O)O)C[C@H](N3C(=O)c4cc(O)c(O)cc4C3=O)C(=O)O2)C1=O)c1csc(N)n1)C(=O)O (stereo partly drawn) [LTV-17, (4S)-2-[(4S)-4-{[(2Z)-2-(2-amino-1,3-thiazol-4-yl)-2-{[(2-carboxypropan-2-yl)oxy]imino}acetyl]amino}-3-oxo-1,2-oxazolidin-2-yl]-4-(5,6-dihydroxy-1,3-dioxo-1,3-dihydro-2H-isoindol-2-yl)-5-oxooxolane-2-carboxylic acid]
